In ChEMBL document CHEMBL2413072, “Synthesis and in vitro anticancer studies of novel C-2 arylidene congeners of lantadenes” (2013):

Experiments:
Type in all cases: functional
T47D = test: Growth inhibition of human T47D cells assessed as cell growth at 10^-4 M by sulforhodamine B assay; conditions: read-out: Activity
OVCAR-8 [1] = test: Growth inhibition of human OVCAR8 cells assessed as cell growth at 10^-8 M by sulforhodamine B assay; conditions: read-out: Activity
NCI-H460 = test: Growth inhibition of human NCI-H460 cells by sulforhodamine B assay
MCF7 [2] = test: Growth inhibition of human MCF7 cells assessed as cell growth at 10^-6 M by sulforhodamine B assay; conditions: read-out: Activity
HCT-116 [3] = test: Growth inhibition of human HCT116 cells assessed as cell growth at 10^-7 M by sulforhodamine B assay; conditions: read-out: Activity
SNB-75 [4] = test: Growth inhibition of human SNB75 cells assessed as cell growth at 10^-8 M by sulforhodamine B assay; conditions: read-out: Activity
[5] = Growth inhibition of human Hs 578T cells assessed as cell growth at 10^-4 M by sulforhodamine B assay; conditions: read-out: Activity
NCI-H522 [6] = test: Growth inhibition of human NCI-H522 cells by sulforhodamine B assay
OVCAR-3 = test: Growth inhibition of human OVCAR3 cells assessed as cell growth at 10^-4 M by sulforhodamine B assay; conditions: read-out: Activity
UO-31 = test: Growth inhibition of human UO31 cells assessed as cell growth at 10^-4 M by sulforhodamine B assay; conditions: read-out: Activity
NCI-H522 [7] = test: Growth inhibition of human NCI-H522 cells assessed as cell growth at 10^-4 M by sulforhodamine B assay; conditions: read-out: Activity
RXF 393 = test: Growth inhibition of human RXF393 cells assessed as cell growth at 10^-4 M by sulforhodamine B assay; conditions: read-out: Activity
SNB-19 = test: Growth inhibition of human SNB19 cells by sulforhodamine B assay
OVCAR-5 = test: Growth inhibition of human OVCAR5 cells assessed as cell growth at 10^-4 M by sulforhodamine B assay; conditions: read-out: Activity
NCI-H226 = test: Growth inhibition of human NCI-H226 cells assessed as cell growth at 10^-6 M by sulforhodamine B assay; conditions: read-out: Activity
SK-OV-3 [8] = test: Growth inhibition of human SKOV3 cells assessed as cell growth at 10^-4 M by sulforhodamine B assay; conditions: read-out: Activity
K562 = test: Growth inhibition of human K562 cells assessed as cell growth at 10^-4 M by sulforhodamine B assay; conditions: read-out: Activity
OVCAR-8 [9] = test: Growth inhibition of human OVCAR8 cells by sulforhodamine B assay
ACHN = test: Growth inhibition of human ACHN cells assessed as cell growth at 10^-6 M by sulforhodamine B assay; conditions: read-out: Activity
OVCAR-8 [10] = test: Growth inhibition of human OVCAR8 cells assessed as cell growth at 10^-4 M by sulforhodamine B assay; conditions: read-out: Activity
SK-OV-3 [11] = test: Growth inhibition of human SKOV3 cells assessed as cell growth at 10^-6 M by sulforhodamine B assay; conditions: read-out: Activity
CAKI-1 = test: Growth inhibition of human CAKI-1 cells assessed as cell growth at 10^-7 M by sulforhodamine B assay; conditions: read-out: Activity
TK-10 = test: Growth inhibition of human TK10 cells assessed as cell growth at 10^-6 M by sulforhodamine B assay; conditions: read-out: Activity
SNB-75 [12] = test: Growth inhibition of human SNB75 cells assessed as cell growth at 10^-7 M by sulforhodamine B assay; conditions: read-out: Activity
MCF7 [13] = test: Growth inhibition of human MCF7 cells assessed as cell growth at 10^-4 M by sulforhodamine B assay; conditions: read-out: Activity
KM12 = test: Growth inhibition of human KM12 cells assessed as cell growth at 10^-8 M by sulforhodamine B assay; conditions: read-out: Activity
SN12C = test: Growth inhibition of human SN12C cells assessed as cell growth at 10^-7 M by sulforhodamine B assay; conditions: read-out: Activity
CCRF-CEM = test: Growth inhibition of human CCRF-CEM cells assessed as cell growth at 10^-7 M by sulforhodamine B assay; conditions: read-out: Activity
OVCAR-8 [14] = test: Growth inhibition of human OVCAR8 cells assessed as cell growth at 10^-7 M by sulforhodamine B assay; conditions: read-out: Activity
SR = test: Growth inhibition of human SR cells assessed as cell growth at 10^-7 M by sulforhodamine B assay; conditions: read-out: Activity
LOX IMVI [15] = test: Growth inhibition of human LOXIMVI cells assessed as cell growth at 10^-8 M by sulforhodamine B assay; conditions: read-out: Activity
HCT-116 [16] = test: Growth inhibition of human HCT116 cells assessed as cell growth at 10^-8 M by sulforhodamine B assay; conditions: read-out: Activity
SK-MEL-2 = test: Growth inhibition of human SK-MEL-2 cells assessed as cell growth at 10^-7 M by sulforhodamine B assay; conditions: read-out: Activity
HCT-116 [17] = test: Growth inhibition of human HCT116 cells assessed as cell growth at 10^-4 M by sulforhodamine B assay; conditions: read-out: Activity
UACC-62 = test: Growth inhibition of human UACC62 cells by sulforhodamine B assay
M14 = test: Growth inhibition of human M14 cells assessed as cell growth at 10^-4 M by sulforhodamine B assay; conditions: read-out: Activity
Malme-3M = test: Growth inhibition of human MALME-3M cells assessed as cell growth at 10^-7 M by sulforhodamine B assay; conditions: read-out: Activity
HL-60(TB) = test: Growth inhibition of human HL-60(TB) cells assessed as cell growth at 10^-6 M by sulforhodamine B assay; conditions: read-out: Activity
HT-29 = test: Growth inhibition of human HT-29 cells assessed as cell growth at 10^-7 M by sulforhodamine B assay; conditions: read-out: Activity
IGROV-1 = test: Growth inhibition of human IGROV1 cells by sulforhodamine B assay
MDA-MB-435 = test: Growth inhibition of human MDA-MB-435 cells assessed as cell growth at 10^-6 M by sulforhodamine B assay; conditions: read-out: Activity
LOX IMVI [18] = test: Growth inhibition of human LOXIMVI cells assessed as cell growth at 10^-6 M by sulforhodamine B assay; conditions: read-out: Activity
HOP-62 = test: Growth inhibition of human HOP62 cells assessed as cell growth at 10^-4 M by sulforhodamine B assay; conditions: read-out: Activity
[19] = read-out: LC50 (the source's name)
[20] = read-out: pLC50 (the source's name) (converted)

`CC(C)=CC(=O)O[C@@H]1CC(C)(C)C[C@H]2C3=CC[C@@H]4[C@@]5(C)CC[C@H](O)C(C)(C)[C@@H]5CC[C@@]4(C)[C@]3(C)CC[C@@]12C(=O)O` [Reduced Lantadene B] gave a growth at 100 µM (T47D) of -17%, a growth at 0.01 µM (OVCAR-8 [1]) of 101% and a GI50 (NCI-H460; read-out: GI50) of 3.07 µM. The LC50 (NCI-H460; read-out: LC50) was greater than 100 µM, the TGI (NCI-H460; read-out: TGI) was 66.8 µM and the GI50 (NCI-H460; read-out: pGI50 (converted)) was 3.09 µM. For the same compound, the LC50 (NCI-H460; read-out: pLC50 (converted)) was greater than 100 µM, the TGI (NCI-H460; read-out: pTGI (converted)) was 66.1 µM and the growth at 1 µM (MCF7 [2]) was 88%. The growth at 0.1 µM (HCT-116 [3]) was 94%, the growth at 0.01 µM (SNB-75 [4]) was 85% and the growth at 100 µM [5] was -45%. For the same compound, the GI50 (NCI-H522 [6]; read-out: GI50) was 4.22 µM, the CC50 (NCI-H522 [6]; [19]) was 71.3 µM and the TGI (NCI-H522 [6]; read-out: TGI) was 21.8 µM. It also gave a GI50 (NCI-H522 [6]; read-out: pGI50 (converted)) of 4.17 µM, a CC50 (NCI-H522 [6]; [20]) of 70.8 µM and a TGI (NCI-H522 [6]; read-out: pTGI (converted)) of 21.9 µM. It also gave a growth at 100 µM (OVCAR-3) of -83%, a growth at 100 µM (UO-31) of -87% and a growth at 100 µM (NCI-H522 [7]) of -64%. It also gave a growth at 100 µM (RXF 393) of -81%, a GI50 (SNB-19; read-out: GI50) of 4.93 µM and a CC50 (SNB-19; [19]) of 74.4 µM. The TGI (SNB-19; read-out: TGI) was 22.5 µM, the GI50 (SNB-19; read-out: pGI50 (converted)) was 4.9 µM and the CC50 (SNB-19; [20]) was 74.1 µM. It also gave a TGI (SNB-19; read-out: pTGI (converted)) of 22.4 µM, a growth at 100 µM (OVCAR-5) of -51% and a growth at 1 µM (NCI-H226) of 86%. For the same compound, the growth at 100 µM (SK-OV-3 [8]) was -62%, the growth at 100 µM (K562) was -1% and the GI50 (OVCAR-8 [9]; read-out: GI50) was 4.68 µM. The CC50 (OVCAR-8 [9]; [19]) was greater than 100 µM, the TGI (OVCAR-8 [9]; read-out: TGI) was 28.9 µM and the GI50 (OVCAR-8 [9]; read-out: pGI50 (converted)) was 4.68 µM. It also gave a CC50 (OVCAR-8 [9]; [20]) greater than 100 µM, a TGI (OVCAR-8 [9]; read-out: pTGI (converted)) of 28.8 µM and a growth at 1 µM (ACHN) of 64%. The growth at 100 µM (OVCAR-8 [10]) was -40%, the growth at 1 µM (SK-OV-3 [11]) was 104% and the growth at 0.1 µM (CAKI-1) was 98%. It also gave a growth at 1 µM (TK-10) of 86%, a growth at 0.1 µM (SNB-75 [12]) of 89% and a growth at 100 µM (MCF7 [13]) of -43%. It also gave a growth at 0.01 µM (KM12) of 100%, a growth at 0.1 µM (SN12C) of 96% and a growth at 0.1 µM (CCRF-CEM) of 102%. It also gave a growth at 0.1 µM (OVCAR-8 [14]) of 101%, a growth at 0.1 µM (SR) of 104% and a growth at 0.01 µM (LOX IMVI [15]) of 98%. The growth at 0.01 µM (HCT-116 [16]) was 99%, the growth at 0.1 µM (SK-MEL-2) was 95% and the growth at 100 µM (HCT-116 [17]) was -80%. It also gave a GI50 (UACC-62; read-out: GI50) of 1.95 µM, a CC50 (UACC-62; [19]) of 25.2 µM and a TGI (UACC-62; read-out: TGI) of 5.48 µM. It also gave a GI50 (UACC-62; read-out: pGI50 (converted)) of 1.95 µM, a CC50 (UACC-62; [20]) of 25.1 µM and a TGI (UACC-62; read-out: pTGI (converted)) of 5.5 µM. It also gave a growth at 100 µM (M14) of -69%, a growth at 0.1 µM (Malme-3M) of 94% and a growth at 1 µM (HL-60(TB)) of 96%. It also gave a growth at 0.1 µM (HT-29) of 95%, a GI50 (IGROV-1; read-out: GI50) of 6.35 µM and a CC50 (IGROV-1; [19]) greater than 100 µM. For the same compound, the TGI (IGROV-1; read-out: TGI) was 29.4 µM, the GI50 (IGROV-1; read-out: pGI50 (converted)) was 6.31 µM and the CC50 (IGROV-1; [20]) was greater than 100 µM. For the same compound, the TGI (IGROV-1; read-out: pTGI (converted)) was 29.5 µM, the growth at 1 µM (MDA-MB-435) was 95% and the growth at 1 µM (LOX IMVI [18]) was 88%. It also gave a growth at 100 µM (HOP-62) of -60%.
